Columns and labels:
Candida albicans = assay: Antibacterial test to Candida albicans (96-hole plate, IC80); format: cell-based; conditions: cultivated at 35° C. for 72 hours, absorbance at 540 nm
Method: (Antibacterial Test to Candida albicans) In the test examples, a test was performed on the antibacterial of the compounds according to the present invention to Candida albicans in the methods later described. The culture dilution train containing each compound was prepared by using a 96-hole flat-bottomed plate, and the inoculation mold solution controlled at 1 to 5×10^3 cell/ml beforehand of 10 μl was added to each hole on the plate. After the inoculation, the molds were cultivated at 35° C. for 72 hours, and the propagation of the mold was evaluated by measuring the absorbance at 540 nm. With such a test, the propagation of the mold in this case was compared with the propagation of the mold in the chemical-free test area to find the concentration of a compound where the propagation rate of the mold is suppressed by 80% as IC 80 (80% growth inhibition concentration).

Aspergillus fumigatus = assay: Antibacterial test to Aspergillus fumigatus (96-hole plate, IC80); format: cell-based; conditions: YNB culture with 0.22% low melting point-agarose, 1×10^4 cell/ml, 25° C., 72 hours, absorbance at 620 nm
Method: (Antibacterial Test to Aspergillus fumigatus)
In the test example, a test was performed on the antibacterial of the compounds according to the present invention to Aspergillus fumigatus in the method later described.
Aspergillus fumigatus was cultivated in Sabouraud's agar at 37° C. for 3 days, after the spores to be used for the test were formed, the spore suspension was prepared. The spore suspension was suspended in YNB culture to which a 0.22% low melting point-agarose was added so as to allow the final concentration to be 1×10^4 cell/ml, and the solution was poured into each hole on a 96-hole flat-bottomed plate. Next, the dilution trains using each of the compounds according to the present invention were added, the solution was cultivated at 25° C. for 72 hours, and the propagation rate of the mold was evaluated by measuring the absorbance at 620 nm. With such a test, the propagation rate of the mold in the chemical-free test area was compared with this case to find the concentration of the compound where the propagation rate of the mold is suppressed by 80% as IC 80 (80% growth inhibition concentration).

[1] = test system: Erysiphe graminis f. sp tritici; assay: Preventive effect test of wheat powdery mildew (wettable powder sprayed on potted wheat, preventive value); format: in vivo; conditions: wettable powder suspended at 250 mg/l, sprayed on potted wheat at 100 l/10 a; morbidity investigated 9th to 14th day after inoculation
Method: (Preventive Effect Test of Erysiphe graminis f. sp […])
The wettable powders obtained by using each compound were diluted with water and were suspended at a predetermined concentration (250 mg/l) and the solution was sprayed over the first to second leaf stage-wheat (variety. Agriculture and Forestry No. 64) cultivated by using a square plastic pot (size: 6.4 cm×6.4 cm) at a rate of 100 1/10 a (are).
After the sprayed leaves were air-dried, the suspension of the spore of Erysiphe graminis f. sp tritici germ sampled from the contracted leaves were sprayed and inoculated over the sprayed leaf after air-dried, the leaves were kept at 20 to 24° C. under a high-humidity condition for 24 hours, then, the leaves were subjected to still standing in a greenhouse (temperature: 20 to 24° C. and relative humidity: 20 to 70 RH). The morbidity rate was investigated based on the following investigation standard on 9th to 14th day after the inoculation and the preventive value was calculated according to the following formula 1.

cucumber gray mold = assay: Preventive effect test of cucumber gray mold (wettable powder sprayed on potted cucumber, preventive value); format: in vivo; conditions: wettable powder suspended at 250 mg/l, sprayed on potted cucumber at 100 l/10 a; morbidity investigated 4th to 6th day after inoculation
Method: (Preventive Effect Test of Cucumber Gray Mold)
The wettable powders obtained by using each compound were diluted with water and were suspended at a predetermined concentration (250 mg/l) and the solution was sprayed over the first to second leaf stage-cucumber (variety: “Sagamihanpakufushinari”) cultivated by using a square plastic pot (size: 6.4 cm×6.4 cm) at a rate of 100 1/10 a.
After the sprayed leaves were air-dried, a paper disk where the solution of the spore of the gray mold suspended with water was impregnated was put on the aforementioned sprayed leaves, and the leaves were contracted in a glass greenhouse (temperature: 20 to 24° C. and relative humidity: 20 to 70 RH). The morbidity rate was investigated based on the following investigation standard on 4th to 6th day after the inoculation and the preventive value was calculated according to the following formula 2.

Venturia inaequalis = assay: Antibacterial test to various phytopathogen, PDA plate culture, suppression of mold elongation; format: cell-based; conditions: final concentration 100 mg/l, 1 to 3 days; for inhibition at 100 µg/mL: Venturia inaequalis, read-out: Inhibition Rate of Growth (suppression rate of the mold elongation, 5-step grade) V.i.
Method: (§1) (Antibacterial Test to Various Phytopathogen)
(§2) In the test examples, a test was performed on the antibacterial of the compounds according to the present invention to various phytopathogenic molds in the methods later described.
(§3) The compounds of 10 mg were each weighed and they were each dissolved in dimethylsulfoxide of 1 ml. The solution of 0.6 ml was added to PDA culture medium (potato-dextrose-agar culture medium) of 60 ml at about 60° C, the solutions were well mixed in an Erlenmeyer flask of 100 ml, and the solution was poured into a Schale and was solidified therein to prepare a plate culture containing the compound according to the present invention of final concentration of 100 mg/l.
(§4) On the other hand, the sample molds on the plate cultured beforehand were punched by a cork borer of diameter of 4 mm, and they were inoculated on the plate culture containing the aforementioned chemical material. After the inoculation, the molds were inoculated at the appropriate growth temperatures of each mold (for the appropriate growth temperatures, for example, the Reference, LIST OF CULTURE 1996 MICROORGANISM 10th edition published by Institute for Fermentation can be referred to.) for 1 to 3 days, the growth rates of the molds were evaluated by measuring the diameter of a colony. The growth rate of the mold thus obtained on the plate culture containing the chemical material is compared with the growth rate of the mold in the non-addition area of the chemical material to find the suppression rate of the mold elongation by the following formula 3. R=100 (dc−dt)/dc (Formula 3) [wherein, R is the suppression rate of the mold elongation (%), dc is the diameter of a colony on an untreated plate and dt is the diameter of a colony on a chemical-treated plate, respectively.]
(§5) • 5: Mold whose suppression rate of the mold elongation is • 90% or higher • 4: Mold whose suppression rate of the mold elongation is less than 90% and 70% or higher • 3: Mold whose suppression rate of the mold elongation is less than 70% and 40% or higher • 2: Mold whose suppression rate of the mold elongation is less than 40% and 20% or higher • 1: Mold whose suppression rate of the mold elongation is less than 20%
V. i.: Venturia inaequalis

Botrytis cinerea = assay: as above; format: cell-based; conditions: final concentration 100 mg/l, 1 to 3 days; for inhibition at 100 µg/mL: Botrytis cinerea, read-out: Inhibition Rate of Growth (suppression rate of the mold elongation, 5-step grade) B.c.
Method: as §1, §2, §3, §4, §5
(§6) In addition, the meanings of the abbreviated letters in Table 22 are as follows: • B. c.; Botrytis cinerea • P. h.; Pseudocercosporella herpotrichoides • M. n.; Microdohium nivale • L. n.; Leptosphaeria nodorum

Microdohium nivale = assay: as above; format: cell-based; conditions: final concentration 100 mg/l, 1 to 3 days; for inhibition at 100 µg/mL: read-out: Inhibition Rate of Growth (suppression rate of the mold elongation, 5-step grade) M.n.
Method: as §1, §2, §3, §4, §5, §6

Leptosphaeria nodorum = assay: as above; format: cell-based; conditions: final concentration 100 mg/l, 1 to 3 days; for inhibition at 100 µg/mL: Parastagonospora nodorum, read-out: Inhibition Rate of Growth (suppression rate of the mold elongation, 5-step grade) L.n.
Method: as §1, §2, §3, §4, §5, §6

[2] = test system: Pseudocercosporella herpotrichoides; assay: as above; format: cell-based; conditions: final concentration 100 mg/l, 1 to 3 days; for inhibition at 100 µg/mL: Oculimacula yallundae, read-out: Inhibition Rate of Growth (suppression rate of the mold elongation, 5-step grade) P.h.
Method: as §1, §2, §3, §4, §5, §6

cucumber powdery mildew = assay: Preventive effect of cucumber powdery mildew (wettable powder sprayed on potted cucumber, preventive value); format: in vivo; conditions: wettable powder suspended at 100 mg/l, sprayed on potted cucumber at 100 l/10 a; morbidity investigated 9th to 14th day after inoculation
Method: (Preventive Effect of Cucumber Powdery Mildew)
The wettable powders obtained by using each compound were diluted with water and were suspended at a predetermined concentration (100 mg/l) and the solution was sprayed over the first to second leaf stage-cucumber (variety: “Sagamihanpakufushinari”) cultivated by using a square plastic pot (size: 6.4 cm×6.4 cm) at a rate of 100 1/10 a.
After the sprayed leaves were air-dried, the spore was inoculated over the aforementioned air-dried leaves from the contracted leaves with a brush, and the contraction was performed in a glass greenhouse (temperature: 20 to 24° C. and relative humidity: 20 to 70 RH). The morbidity rate was investigated based on the same investigation standard as that in the preventive effect test of the cucumber gray mold on 9th to 14th day after the inoculation, and the preventive value was calculated according to the aforementioned formula 2.

Cn1cc(CNCC(C)(C)Cc2ccc(C(C)(C)C)cc2)cn1 [Compound I-6]
80% Growth Inhibition Concentration (IC80) (Candida albicans): 18 µg/mL | 80% Growth Inhibition Concentration (IC80) (Aspergillus fumigatus): 9 µg/mL

CC(C)(CNCc1ccc(Cl)nc1)Cc1ccc(C(C)(C)C)cc1 [Compound I-2]
Preventive Value (%) [1]: 100% | 80% Growth Inhibition Concentration (IC80) (Aspergillus fumigatus): 38 µg/mL

CC(C)(CNCc1cnccn1)Cc1ccc(C(C)(C)C)cc1 [Compound I-4, N-[3-(4-t-butylphenyl)-2,2-dimethylpropyl]-2-pyrazylmethylamine]
80% Growth Inhibition Concentration (IC80) (Candida albicans): 75 µg/mL | 80% Growth Inhibition Concentration (IC80) (Aspergillus fumigatus): 75 µg/mL

CC(CCc1ccc(OC(F)(F)F)cc1)CN(C)Cc1ccc(Cl)nc1 (centres unmarked) [Compound I-60]
Preventive Value (%) [1]: 100% | Preventive Value (%) (cucumber gray mold): 100% | Inhibition Rate of Growth (suppression rate of the mold elongation, 5-step grade) V.i. (Venturia inaequalis): 5 (Mold whose suppression rate of the mold elongation is • 90% or higher) | Inhibition Rate of Growth (suppression rate of the mold elongation, 5-step grade) B.c. (Botrytis cinerea): 5 (Mold whose suppression rate of the mold elongation is • 90% or higher) | Inhibition Rate of Growth (suppression rate of the mold elongation, 5-step grade) M.n. (Microdohium nivale): 5 (Mold whose suppression rate of the mold elongation is • 90% or higher) | Inhibition Rate of Growth (suppression rate of the mold elongation, 5-step grade) L.n. (Leptosphaeria nodorum): 5 (Mold whose suppression rate of the mold elongation is • 90% or higher) | Inhibition Rate of Growth (suppression rate of the mold elongation, 5-step grade) P.h. [2]: 5 (Mold whose suppression rate of the mold elongation is • 90% or higher)

CC(C)(CNCc1ccc(Cl)nc1)Cc1ccccc1Cl [Compound I-3]
80% Growth Inhibition Concentration (IC80) (Aspergillus fumigatus): 9 µg/mL

CC(C)(CNCc1ccc(Cl)nc1)Cc1ccc(OC(F)(F)F)cc1 [Compound I-45, 6-chloro-N-[2,2-dimethyl-3-(4-trifluoromethoxyphenyl)propyl]-3-pyridylmethylamine]
Preventive Value (%) [1]: 100% | Preventive Value (%) (cucumber gray mold): 100% | inhibition at 100 µg/mL (Venturia inaequalis): ≥ 90% | inhibition at 100 µg/mL (Botrytis cinerea): ≥ 90% | inhibition at 100 µg/mL (Microdohium nivale): ≥ 90% | inhibition at 100 µg/mL (Leptosphaeria nodorum): ≥ 90% | inhibition at 100 µg/mL [2]: ≥ 90% | Preventive Value (%) (cucumber powdery mildew): 100%

CC(C)(CNCc1c[nH]cn1)Cc1ccc(C(C)(C)C)cc1 [Compound I-11]
80% Growth Inhibition Concentration (IC80) (Candida albicans): 150 µg/mL

Cn1cc(CNCC(C)(C)Cc2ccc(F)cc2F)cn1 [Compound I-9]
80% Growth Inhibition Concentration (IC80) (Aspergillus fumigatus): 150 µg/mL

CC(CCc1cc(Cl)cc(Cl)c1)CN(C)Cc1ccc(Cl)nc1 (centres unmarked) [Compound I-57]
Preventive Value (%) [1]: 100% | Inhibition Rate of Growth (suppression rate of the mold elongation, 5-step grade) V.i. (Venturia inaequalis): 5 (Mold whose suppression rate of the mold elongation is • 90% or higher) | Inhibition Rate of Growth (suppression rate of the mold elongation, 5-step grade) B.c. (Botrytis cinerea): 5 (Mold whose suppression rate of the mold elongation is • 90% or higher) | Inhibition Rate of Growth (suppression rate of the mold elongation, 5-step grade) M.n. (Microdohium nivale): 5 (Mold whose suppression rate of the mold elongation is • 90% or higher) | Inhibition Rate of Growth (suppression rate of the mold elongation, 5-step grade) L.n. (Leptosphaeria nodorum): 5 (Mold whose suppression rate of the mold elongation is • 90% or higher) | Inhibition Rate of Growth (suppression rate of the mold elongation, 5-step grade) P.h. [2]: 5 (Mold whose suppression rate of the mold elongation is • 90% or higher) | Preventive Value (%) (cucumber powdery mildew): 100%

CN(Cc1ccc(Cl)nc1)CC(C)(C)Cc1ccc(C(C)(C)C)cc1 [Compound I-18, N-[3-(4-t-butylphenyl)-2,2-dimethylpropyl]-6-chloro-N-methyl-3-pyridylmethylamine]
Preventive Value (%) [1]: 100% | inhibition at 100 µg/mL (Venturia inaequalis): ≥ 90% | inhibition at 100 µg/mL (Botrytis cinerea): ≥ 90% | inhibition at 100 µg/mL (Microdohium nivale): ≥ 90% | inhibition at 100 µg/mL (Leptosphaeria nodorum): ≥ 90% | inhibition at 100 µg/mL [2]: ≥ 90%

CC(CCc1cccc(OC(F)(F)F)c1)CN(C)Cc1ccc(Cl)nc1 (centres unmarked) [Compound I-58, 6-chloro-N-[2-methyl-4-(3-trifluoromethoxyphenyl)butyl]-N-methyl-3-pyridylmethylamine]
Preventive Value (%) [1]: 100% | inhibition at 100 µg/mL (Venturia inaequalis): ≥ 90% | inhibition at 100 µg/mL (Botrytis cinerea): ≥ 90% | inhibition at 100 µg/mL (Microdohium nivale): ≥ 90% | inhibition at 100 µg/mL (Leptosphaeria nodorum): ≥ 90% | inhibition at 100 µg/mL [2]: ≥ 90%

CC(C)(CNCc1c[nH]cn1)Cc1ccc(F)cc1F [Compound I-12]
80% Growth Inhibition Concentration (IC80) (Candida albicans): 18 µg/mL

Cn1cc(CNCC(C)(C)Cc2ccccc2F)cn1 [Compound I-7]
80% Growth Inhibition Concentration (IC80) (Aspergillus fumigatus): 150 µg/mL

CC(C)(CNCc1cnc(Cl)cn1)Cc1ccc(C(C)(C)C)cc1 [Compound I-5]
80% Growth Inhibition Concentration (IC80) (Aspergillus fumigatus): 9 µg/mL

CC(C)(CNCc1ccccn1)Cc1ccc(C(C)(C)C)cc1 [Compound I-1]
80% Growth Inhibition Concentration (IC80) (Aspergillus fumigatus): 5 µg/mL
